Measured values published in article PMC6308944, “Anti-Candida albicans Activity of Thiazolylhydrazone Derivatives in Invertebrate and Murine Models” (Journal of Fungi, 2018).
≈ marks a conversion by molar mass, not a printed value.

Tests used:
C. albicans (CAN14) = experiment: MIC, broth microdilution (CLSI M27-A3), reference isolate; conditions: Candida albicans
C. albicans (DAY-185) = experiment: as above; conditions: Candida albicans, 48 h
C. glabrata (ATCC90030) = experiment: as above; conditions: Nakaseomyces glabratus
C. krusei (ATCC6258) = experiment: as above; conditions: Pichia kudriavzevii
[1] = tested on: Candida glabrata clinical isolates; experiment: MIC, broth microdilution, clinical isolates
[2] = tested on: Cryptococcus neoformans clinical isolates; experiment: MIC, broth microdilution, clinical isolates
C. dublinensis (MYA-646) = experiment: MIC, broth microdilution (CLSI M27-A3), reference isolate; conditions: Candida dubliniensis
C. neoformans (H99) = experiment: as above; conditions: Cryptococcus neoformans
[3] = tested on: C. tropicalis (ATCC13803); experiment: as above; conditions: Candida tropicalis
[4] = tested on: C. parapsilosis (ATCC22019); experiment: as above; conditions: Lodderomyces parapsilosis
[5] = tested on: Candida albicans clinical isolates; experiment: MIC, broth microdilution, clinical isolates
[6] = tested on: Candida parapsilosis isolates; experiment: MIC, broth microdilution, clinical isolates

C[C@@H]1[C@H](O)[C@@H](C)/C=C/C=C/C=C/C=C/C=C/C=C/C=C/[C@H](O[C@@H]2O[C@H](C)[C@@H](O)[C@H](N)[C@@H]2O)C[C@@H]2O[C@](O)(C[C@@H](O)C[C@@H](O)[C@H](O)CC[C@@H](O)C[C@@H](O)CC(=O)O[C@H]1C)C[C@H](O)[C@H]2C(=O)O [Amphotericin B]
MIC (C. albicans (CAN14)): 1 µg/mL (≈ 1.08 µM) | MIC (C. albicans (DAY-185)): 1 µg/mL (≈ 1.08 µM) | MIC (C. glabrata (ATCC90030)): 2 µg/mL (≈ 2.16 µM) | MIC (C. krusei (ATCC6258)): 8 µg/mL (≈ 8.66 µM) | MIC50 ([1]; Nakaseomyces glabratus): 0.5 µg/mL (≈ 0.541 µM) | MIC90 ([1]; Nakaseomyces glabratus): 1 µg/mL (≈ 1.08 µM) | MIC ([1]; Nakaseomyces glabratus, C. glabrata clinical isolate 6922): 0.5 µg/mL (≈ 0.541 µM) | MIC ([1]; Nakaseomyces glabratus, C. glabrata clinical isolate 6927): 1 µg/mL (≈ 1.08 µM) | MIC ([1]; Nakaseomyces glabratus, C. glabrata clinical isolate 6931): 0.5 µg/mL (≈ 0.541 µM) | MIC ([1]; Nakaseomyces glabratus, C. glabrata clinical isolate 6932): 0.5 µg/mL (≈ 0.541 µM) | MIC ([1]; Nakaseomyces glabratus, C. glabrata clinical isolate 6943): 1 µg/mL (≈ 1.08 µM) | MIC ([1]; Nakaseomyces glabratus, C. glabrata clinical isolate 7110): 0.5 µg/mL (≈ 0.541 µM) | MIC ([1]; Nakaseomyces glabratus, C. glabrata clinical isolate 7221): 0.5 µg/mL (≈ 0.541 µM) | MIC ([1]; Nakaseomyces glabratus, C. glabrata clinical isolate 7255): 1 µg/mL (≈ 1.08 µM) | MIC ([1]; Nakaseomyces glabratus, C. glabrata clinical isolate 7815): 0.5 µg/mL (≈ 0.541 µM) | MIC ([1]; Nakaseomyces glabratus, C. glabrata clinical isolate 7871): 1 µg/mL (≈ 1.08 µM) | susceptibility of isolates according to CLSI M27-S4 ([1]; all C. glabrata clinical isolates): sensitive | MIC50 [2]: 0.125 µg/mL (≈ 0.135 µM) | MIC90 [2]: 0.25 µg/mL (≈ 0.271 µM) | MIC ([2]; C. neoformans clinical isolate 27JF): 0.25 µg/mL (≈ 0.271 µM) | MIC ([2]; C. neoformans clinical isolate 28JF): 0.125 µg/mL (≈ 0.135 µM) | MIC ([2]; C. neoformans clinical isolate 93): 0.25 µg/mL (≈ 0.271 µM) | MIC ([2]; C. neoformans clinical isolate 94): 0.25 µg/mL (≈ 0.271 µM) | MIC ([2]; C. neoformans clinical isolate 646B): 0.125 µg/mL (≈ 0.135 µM) | MIC ([2]; C. neoformans clinical isolate 975): 0.125 µg/mL (≈ 0.135 µM) | MIC ([2]; C. neoformans clinical isolate 9220): 0.125 µg/mL (≈ 0.135 µM) | MIC ([2]; C. neoformans clinical isolate 9273): 0.125 µg/mL (≈ 0.135 µM) | MIC ([2]; C. neoformans clinical isolate 10131): 0.125 µg/mL (≈ 0.135 µM) | MIC ([2]; C. neoformans clinical isolate 10211): 0.125 µg/mL (≈ 0.135 µM) | MIC ([2]; C. neoformans clinical isolate 10264): 0.125 µg/mL (≈ 0.135 µM) | MIC ([2]; C. neoformans clinical isolate 10335): 0.125 µg/mL (≈ 0.135 µM) | MIC ([2]; C. neoformans clinical isolate 10379): 0.125 µg/mL (≈ 0.135 µM) | MIC ([2]; C. neoformans clinical isolate 41292): 0.125 µg/mL (≈ 0.135 µM) | MIC ([2]; C. neoformans clinical isolate 41295): 0.125 µg/mL (≈ 0.135 µM) | MIC ([2]; C. neoformans clinical isolate 41296): 1 µg/mL (≈ 1.08 µM) | MIC ([2]; C. neoformans clinical isolate 41297): 0.125 µg/mL (≈ 0.135 µM) | MIC ([2]; C. neoformans clinical isolate 41298): 0.125 µg/mL (≈ 0.135 µM) | MIC ([2]; C. neoformans clinical isolate 41299): 0.125 µg/mL (≈ 0.135 µM) | MIC ([2]; C. neoformans clinical isolate 90896): 0.125 µg/mL (≈ 0.135 µM) | MIC ([2]; C. neoformans clinical isolate 92868): 0.25 µg/mL (≈ 0.271 µM) | MIC ([2]; C. neoformans clinical isolate BF113): 1 µg/mL (≈ 1.08 µM) | MIC ([2]; C. neoformans clinical isolate BF114): < 0.0625 µg/mL | MIC ([2]; C. neoformans clinical isolate C31): 0.125 µg/mL (≈ 0.135 µM) | MIC ([2]; C. neoformans clinical isolate F10): 0.25 µg/mL (≈ 0.271 µM) | MIC ([2]; C. neoformans clinical isolate RN01): 0.125 µg/mL (≈ 0.135 µM) | MIC ([2]; C. neoformans clinical isolate WP): 1 µg/mL (≈ 1.08 µM) | MIC (C. dublinensis (MYA-646)): 1 µg/mL (≈ 1.08 µM) | MIC (C. neoformans (H99)): 4 µg/mL (≈ 4.33 µM) | MIC [3]: 4 µg/mL (≈ 4.33 µM) | MIC [4]: 2 µg/mL (≈ 2.16 µM) | MIC50 ([5]; Candida albicans): 0.25 µg/mL (≈ 0.271 µM) | MIC90 ([5]; Candida albicans): 0.25 µg/mL (≈ 0.271 µM) | MIC ([5]; Candida albicans, C. albicans clinical isolate 1): 0.25 µg/mL (≈ 0.271 µM) | MIC ([5]; Candida albicans, C. albicans clinical isolate 02A): 0.25 µg/mL (≈ 0.271 µM) | MIC ([5]; Candida albicans, C. albicans clinical isolate 02B): 0.25 µg/mL (≈ 0.271 µM) | MIC ([5]; Candida albicans, C. albicans clinical isolate 6): 0.5 µg/mL (≈ 0.541 µM) | MIC ([5]; Candida albicans, C. albicans clinical isolate 7): 0.125 µg/mL (≈ 0.135 µM) | MIC ([5]; Candida albicans, C. albicans clinical isolate 9): 0.25 µg/mL (≈ 0.271 µM) | MIC ([5]; Candida albicans, C. albicans clinical isolate 10): 0.25 µg/mL (≈ 0.271 µM) | MIC ([5]; Candida albicans, C. albicans clinical isolate 11): 0.125 µg/mL (≈ 0.135 µM) | MIC ([5]; Candida albicans, C. albicans clinical isolate 13): 0.125 µg/mL (≈ 0.135 µM) | MIC90 ([5]; nine C. albicans clinical isolates): 0.25 µg/mL (≈ 0.271 µM) | MIC90 ([6]; C. parapsilosis isolates): 0.5 µg/mL (≈ 0.541 µM) | MIC50 ([6]; Lodderomyces parapsilosis): 0.25 µg/mL (≈ 0.271 µM) | MIC90 ([6]; Lodderomyces parapsilosis): 0.5 µg/mL (≈ 0.541 µM) | MIC ([6]; Lodderomyces parapsilosis, C. parapsilosis isolate 6901): 0.5 µg/mL (≈ 0.541 µM) | MIC ([6]; Lodderomyces parapsilosis, C. parapsilosis isolate 6917): 0.25 µg/mL (≈ 0.271 µM) | MIC ([6]; Lodderomyces parapsilosis, C. parapsilosis isolate 6933): 0.5 µg/mL (≈ 0.541 µM) | MIC ([6]; Lodderomyces parapsilosis, C. parapsilosis isolate 7449): 0.5 µg/mL (≈ 0.541 µM) | MIC ([6]; Lodderomyces parapsilosis, C. parapsilosis isolate 7585): 0.25 µg/mL (≈ 0.271 µM) | MIC ([6]; Lodderomyces parapsilosis, C. parapsilosis isolate 7652): 0.25 µg/mL (≈ 0.271 µM) | MIC ([6]; Lodderomyces parapsilosis, C. parapsilosis isolate 7839): 0.5 µg/mL (≈ 0.541 µM) | MIC ([6]; Lodderomyces parapsilosis, C. parapsilosis isolate 7970A): 0.25 µg/mL (≈ 0.271 µM) | MIC ([6]; Lodderomyces parapsilosis, C. parapsilosis isolate 8044): 0.5 µg/mL (≈ 0.541 µM) | MIC ([6]; Lodderomyces parapsilosis, C. parapsilosis isolate 8662): 0.25 µg/mL (≈ 0.271 µM)
